≈ marks a conversion by molar mass, not a printed value. Each block holds one compound with its values, some of them ahead of it.
Key:
Leishmania amazonensis [1] = assay: Antileishmanial activity against promastigote form of Leishmania amazonensis IFLA/BR/1967/PH8 assessed as parasite growth inhibition incubated for 72 hrs by MTT assay; assay type: functional, organism-based; details: IFLA/BR/1967/PH8, 72 h
Leishmania infantum [2] = assay: Antileishmanial activity against Leishmania infantum MHOM/MA/67/ITMAP263 intracellular amastigotes infected in mouse bone marrow derived macrophage cells assessed as parasite growth inhibition measured after 24 hrs by DAPI staining based microscopic analysis; assay type: functional, organism-based; details: MHOM/MA/67/ITMAP263, Macrophage
[3] = Cytotoxicity against mouse bone marrow-derived macrophage cells assessed as reduction in cell viability measured after 24 hrs by resazurin assay; assay type: toxicity, cell-based, BMDM; details: bone marrow-derived macrophages
Leishmania infantum [4] = assay: Antileishmanial activity against promastigote form of Leishmania infantum MHOM/BR/70/BH46 promastigote assessed as parasite growth inhibition incubated for 72 hrs by Neubauer chamber analysis; assay type: functional, organism-based; details: MHOM/BR/70/BH46, 72 h
Leishmania amazonensis [5] = assay: Antileishmanial activity against promastigote form of Leishmania amazonensis MHOM/BR/77/LTB0016 incubated for 24 hrs by MTT assay; assay type: functional, organism-based; details: MHOM/BR/77/LTB0016, 24 h
[6] = target: Trypanothione reductase (Leishmania donovani) (UniProt P39050); assay: Inhibition of Leishmania donovani trypanothione reductase expressed in Escherichia coli BL21(DE3) using TS2 and NADPH as substrate at 100 uM preincubated for 5 mins followed by substrate addition by DTNB-reagent based spectrophotometric method
Sequence of Trypanothione reductase (Leishmania donovani) (P39050 whole entry): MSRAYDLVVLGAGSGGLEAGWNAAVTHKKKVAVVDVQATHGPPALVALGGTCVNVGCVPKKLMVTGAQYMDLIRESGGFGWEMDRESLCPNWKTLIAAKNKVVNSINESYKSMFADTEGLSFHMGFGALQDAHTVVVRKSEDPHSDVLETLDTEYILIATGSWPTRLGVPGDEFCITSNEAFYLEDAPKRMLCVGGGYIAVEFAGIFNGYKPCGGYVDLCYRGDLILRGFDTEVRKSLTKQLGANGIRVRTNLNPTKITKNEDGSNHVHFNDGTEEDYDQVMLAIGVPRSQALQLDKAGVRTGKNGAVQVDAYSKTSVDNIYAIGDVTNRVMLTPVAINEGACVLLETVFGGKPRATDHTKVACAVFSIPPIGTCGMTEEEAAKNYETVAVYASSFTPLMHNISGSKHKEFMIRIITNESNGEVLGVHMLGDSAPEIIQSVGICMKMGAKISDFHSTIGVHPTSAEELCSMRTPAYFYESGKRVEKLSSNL

Leishmania donovani [7] = assay: Antileishmanial activity against promastigote form of Leishmania donovani MHOM/IN/80/Dd8 transfected with firefly luciferase gene assessed as parasite growth inhibition incubated for 96 hrs by Steady Glo reagent based luminescence assay; assay type: functional, organism-based; details: MHOM/IN/80/Dd8, 96 h
Leishmania major [8] = assay: Antileishmanial activity against Leishmania major JISH118 promastigote infected in human THP-1 cells assessed as parasite growth inhibition measured after 48 hrs by Giemsa staining based analysis; assay type: functional, organism-based; details: JISH118, THP-1, 48 h
Trypanosoma cruzi = assay: Antitrypanosomal activity against Trypanosoma cruzi Tulahuen intracellular amastigotes transfected with beta-galactosidase infected in human U-937 cells assessed as viability of intracellular amastigotes measured after 72 hrs by spectrophotometry; assay type: functional, organism-based; details: U-937, 72 h
Leishmania panamensis = assay: Antileishmanial activity against Leishmania panamensis MHOM/CO/87/UA140pIR-GFP intracellular amastigotes infected in human U-937 cells assessed as parasite growth inhibition measured after 72 hrs by flow cytometry analysis; assay type: functional, organism-based; details: U-937, 72 h
[9] = Cytotoxicity against BALB/c mouse peritoneal macrophages assessed as reduction in cell viability measured after 48 hrs by luminescence based CellTiter-Glo assay; assay type: toxicity, Peritoneal macrophage
Leishmania infantum [10] = assay: Antileishmanial activity against promastigote form of Leishmania infantum BH 46 assessed as parasite growth inhibition measured after 48 hrs by Celltiter-Glo assay; assay type: functional, organism-based; details: BH 46, 48 h
Leishmania donovani [11] = assay: Antileishmanial activity against Leishmania donovani MHOM/IN/83/AG83 intracellular amastigotes infected in mouse RAW264.7 cells assessed as parasite growth inhibition incubated for 48 hrs by Giemsa staining based microscopic analysis; assay type: functional, organism-based; details: MHOM/IN/83/AG83, RAW264.7, 48 h
Leishmania donovani [12] = assay: Antileishmanial activity against promastigote form of Leishmania donovani MHOM/IN/83/AG83 assessed as inhibition of promastigote growth incubated for 48 hrs by MTT reduction assay; assay type: functional, organism-based; details: MHOM/IN/83/AG83, 48 h
Leishmania braziliensis = assay: Antileishmanial activity against promastigote form of Leishmania braziliensis MHOM/BR/75/M2904 promastigotes assessed as parasite growth inhibition incubated for 48 hrs by resazurin assay; assay type: functional, organism-based; details: MHOM/BR/75/M2904, 48 h
Leishmania mexicana [13] = assay: Antileishmanial activity against promastigote form of Leishmania mexicana assessed as inhibition of parasite growth measured for 10 days by Neubauer counting chamber based analysis; assay type: functional, organism-based; details: 240 h
Leishmania mexicana [14] = assay: Antileishmanial activity against mammalian stage Leishmania mexicana MNYC/BZ/62/M379 axenic amastigotes assessed as inhibition of […] incubated for 24 hrs by alamar blue assay; assay type: functional; details: read-out: ED50 (the source's name)
Leishmania donovani [15] = assay: Antileishmanial activity against promastigote form of wild-type Leishmania donovani MHOM/80/IN/Dd8 assessed as inhibition of parasite growth incubated for 48 hrs by MTT assay; assay type: functional, organism-based; details: MHOM/80/IN/Dd8, 48 h
Leishmania amazonensis [16] = assay: Antileishmanial activity against Leishmania amazonensis IFLA/Br/67/PH8 intracellular amastigotes infected in BALB/c mouse peritoneal macrophages assessed as reduction in intracellular amastigotes incubated for 72 hrs by fluorometric analysis; assay type: functional, organism-based; details: IFLA/Br/67/PH8, 72 h
Leishmania mexicana [17] = assay: Inhibition of recombinant Leishmania mexicana CPB2.8 delta CTE at 20 uM
[18] = Cytotoxicity against mouse J774.A1 cells assessed as reduction in cell viability incubated for 48 hrs by MTT assay; assay type: toxicity, cell-based
Leishmania major [19] = assay: Antileishmanial activity against Leishmania major axenic amastigotes assessed as parasite growth inhibition by Alamar blue assay; assay type: functional, organism-based

SMILES: O=C(CC[Se]c1ccnc2cc(Cl)ccc12)Nc1ccc([N+](=O)[O-])cc1
IC50 (Leishmania amazonensis [1]): 10.8 µg/mL (≈ 24.9 µM)

SMILES: CCCCCCCCNCc1ccc2c(c1)C(=O)CC(C)(C)O2
IC50 (Leishmania infantum [2]): 24.6 µM | CC50 at 24 h [3]: 40.2 µM

SMILES: CCc1ccc(NC(=S)N/N=C/c2c[nH]c3c(C)cc(Br)cc23)cc1
IC50 (Leishmania infantum [4]): 4.36 µM

SMILES: N=C(N)c1ccc(OCCCCCOc2ccc(C(=N)N)cc2)cc1 [PENTAMIDINE]
IC50 (Leishmania amazonensis [5]): 12.3 µM

inhibition [6]: 53%
SMILES: C=C(C1c2[nH]c3ccccc3c2CCN1C(=O)OC(C)(C)C)N(CC(=O)NC(C)(C)C)Cc1ccc(C)cc1 (stereo not drawn)
IC50 (Leishmania donovani [7]): 0.06 µM

SMILES: Clc1cccc(Nc2nnc(-c3ccc(C(c4c[nH]c5ccccc45)c4c[nH]c5ccccc45)cc3)s2)c1
IC50 (Leishmania major [8]): 0.7 µM

EC50 (Trypanosoma cruzi): 0.72 µM
SMILES: CCCCC(CCCCCCC[n+]1ccn(C)c1)Oc1ccc(C(=O)/C=C/c2ccco2)cc1 (stereo not drawn)
EC50 (Leishmania panamensis): 2.12 µM

SMILES: C/C(=N\Nc1nc(-c2ccc(Br)cc2)cs1)c1ccccn1
CC50 at 48 h [9]: 2.95 µM | IC50 (Leishmania infantum [10]): 3.12 µM

SMILES: COc1ccc(-c2nnc(/C=C/c3cn(-c4ccccc4)nc3-c3ccccc3)o2)cc1OC
IC50 (Leishmania donovani [11]): 66.8 µg/mL (≈ 148 µM) | IC50 (Leishmania donovani [12]): 40.1 µg/mL (≈ 89 µM)

SMILES: NC(=S)N/N=C(\C=C\c1ccc(Cl)cc1)c1ccccc1
IC50 (Leishmania amazonensis [5]): 5.22 µM

SMILES: c1cncc(Nc2nnc(-c3ccc(C(c4c[nH]c5ccccc45)c4c[nH]c5ccccc45)cc3)s2)c1
IC50 (Leishmania major [8]): 0.7 µM

SMILES: CC(C)=CC1=C(OC(=O)CCc2cn(-c3ccc(C)cc3)nn2)C(=O)c2ccccc2C1=O
IC50 (Leishmania braziliensis): 27.1 µM

SMILES: Cc1ccc(-c2nn(-c3ccccc3)cc2/C=C/c2nnc(-c3sc4ccccc4c3Cl)o2)cc1
IC50 (Leishmania donovani [11]): 73.1 µg/mL (≈ 148 µM) | IC50 (Leishmania donovani [12]): 19 µg/mL (≈ 38.4 µM)

SMILES: Fc1cccc(Nc2cnc3ccccc3c2)c1
IC50 (Leishmania mexicana [13]): 41.9 µM

SMILES: S=C(N/N=C/c1c[nH]c2c(Br)cc(Br)cc12)Nc1ccccc1
IC50 (Leishmania infantum [4]): 5.6 µM

SMILES: O=c1ccoc2cc(OCCCCCCCCCOc3cccc4cccnc34)ccc12
EC50 (Leishmania panamensis): 6.11 µg/mL

SMILES: COC(=O)[C@]12CCC(C)(C)C[C@H]1C1=CC[C@@H]3[C@@]4(C)CC[C@@H]5O[C@H](c6ccccc6C(=O)O)OC[C@@]5(C)[C@@H]4CC[C@@]3(C)[C@]1(C)CC2
EC50 (Leishmania mexicana [14]): 5 µM

SMILES: CC1(C)CC[C@]2(NC(=O)N3CCC[C@H]3C(=O)O)CC[C@]3(C)C(=CC[C@@H]4[C@@]5(C)CC[C@@H]6OC(C)(C)OC[C@@]6(C)[C@@H]5CC[C@]43C)[C@@H]2C1
EC50 (Leishmania mexicana [14]): 4 µM

SMILES: O=[N+]([O-])c1ccc(COc2ccc(-c3nc4ccccc4[nH]3)cc2)cc1
IC50 (Leishmania donovani [15]): 68 µM

SMILES: O=c1ccoc2cc(OCCCCOc3cccc4ccccc34)ccc12
EC50 (Leishmania panamensis): 6.11 µg/mL

IC50 (Leishmania amazonensis [16]): 7.61 µM
SMILES: CCCCCCCCCCn1cc(COCC2CO2)[n+](C)n1 (stereo not drawn)

inhibition (Leishmania mexicana [17]): 97%
SMILES: Cc1cc(C)cc(S(=O)(=O)n2c(SCC(=O)Nc3ccccc3)nc3ccccc32)c1

SMILES: Clc1ccc(COc2ccc(-c3nc4ccccc4o3)cc2)c(Cl)c1
IC50 (Leishmania donovani [15]): 57 µM

SMILES: O=C1c2ccccc2C(=O)N1CCn1cc(-c2ccccc2)nn1
CC50 at 48 h [18]: > 500 µM

SMILES: COc1ccc(-c2csc(N/N=C/c3ccccn3)n2)cc1
CC50 at 48 h [9]: 1.35 µM | IC50 (Leishmania infantum [10]): 2.78 µM

SMILES: COc1ccc(-c2nn(-c3ccccc3)cc2/C=N/N=C/c2c(C)nn(-c3ccccc3)c2Cl)cc1
IC50 (Leishmania major [19]): 1.45 µM

— ChEMBL document CHEMBL5096192, “Recent advancements in anti-leishmanial research: Synthetic strategies and structural activity relationships” (Eur J Med Chem, 2021)
